# According to patent US8546429B2, “1,2,3-trisubstituted aryl and heteroaryl derivatives as modulators of metabolism and the prophylaxis and treatment of disorders related thereto” (Arena Pharmaceuticals, Inc., priority 2003, dated 2013):
# Target: T1, RUP3 (Homo sapiens, UniProt Q8TDV5)
# T1 construct: expressed in transfected cells; host or cells: melanophores, electroporated
# T1 sequence (Q8TDV5 1-335): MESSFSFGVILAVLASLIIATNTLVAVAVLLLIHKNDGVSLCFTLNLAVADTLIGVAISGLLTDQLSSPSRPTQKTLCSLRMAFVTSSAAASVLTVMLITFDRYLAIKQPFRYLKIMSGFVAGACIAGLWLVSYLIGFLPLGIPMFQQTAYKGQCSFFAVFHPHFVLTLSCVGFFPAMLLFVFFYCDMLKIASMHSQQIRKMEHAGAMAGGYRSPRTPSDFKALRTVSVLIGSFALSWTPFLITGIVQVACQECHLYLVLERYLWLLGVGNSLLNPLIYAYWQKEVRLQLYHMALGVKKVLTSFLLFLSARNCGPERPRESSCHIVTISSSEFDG
# Assay: RUP3 dose responses in melanophores
# Assay type: cell-based
# Conditions: melanophores transfected with RUP3 expression vector; Table 8
# Method: Melanophores are maintained in culture as reported by Potenza, M. N. and Lerner, M. R., in Pigment Cell Research, Vol. 5, 372-378, 1992 and transfected with the RUP3 expression vector (pCMV) using electroporation. Following electroporation, the transfected cells are plated into 96 well plates for the assay. The cells are then allowed to grow for 48 hours in order to both recover from the electroporation procedure and attain maximal receptor expression levels.
# On the assay day, the growth medium on the cells is replaced with serum-free buffer containing 10 nM melatonin. The melatonin acts via an endogenous Gi-coupled GPCR in the melanophores to lower intracellular cAMP levels. In response to lowered cAMP levels, the melanophores translocate their pigment to the center of the cell. The net effect of this is a significant decrease in the absorbance reading of the cell monolayer in the well, measured at […].
# After a 1-hour incubation in melatonin, the cells become completely pigment-aggregated. At this point a baseline absorbance reading is collected. Serial dilutions of test compounds are then added to the plate and compounds that stimulate RUP3 produce increases in intracellular cAMP levels. In response to these increased cAMP levels, the melanophores translocate their pigment back into the cell periphery. After one hour, stimulated cells are fully pigment-dispersed. The cell monolayer in the dispersed state absorbs much more light in the 600-650 nm range. The measured increase in absorbance compared to the baseline reading allows one to quantitate the degree of receptor stimulation and plot a dose-response curve.
# The compounds in the above examples were screened using the melanophore assay.
row,EC50,SMILES
1,242 nM,"CC(C)(C)OC(=O)N1CCC(CCOc2ncnc(Nc3ccc(S(C)(=O)=O)cc3)c2[N+](=O)[O-])CC1 [Compound A14, 4-{2-[6-(4-Methanesulfonyl-phenylamino)-5-nitro-pyrimidin-4-yloxy]-ethyl}-piperidine-1-carboxylic acid tert-butyl ester]"
2,185 nM,"CS(=O)(=O)c1ccc(Nc2ncnc(OC3CCN(C(=O)c4cccnc4)CC3)c2[N+](=O)[O-])cc1 [Compound A24, {4-[6-(4-Methanesulfonyl-phenylamino)-5-nitro-pyrimidin-4-yloxy]-piperidin-1-yl}-pyridin-3-yl-methanone]"
3,16.9 nM,"CC(C)OC(=O)N1CCC(Oc2ncnc(Nc3ccc(S(C)(=O)=O)cc3)c2C#N)CC1 [Compound A39, 4-[5-Cyano-6-(4-methanesulfonyl-phenylamino)-pyrimidin-4-yloxy]-piperidine-1-carboxylic acid isopropyl ester]"
4,76.5 nM,"CS(=O)(=O)c1ccc(Nc2ncnc(OC3CCN(S(C)(=O)=O)CC3)c2[N+](=O)[O-])cc1 [Compound A27, (4-Methanesulfonyl-phenyl)-[6-(1-methanesulfonyl-piperidin-4-yloxy)-5-nitro-pyrimidin-4-yl]-amine]"
5,28.3 nM,"Cc1c(Oc2ccc(CCn3ccnc3)cc2F)ncnc1OC1CCN(C(=O)OC(C)C)CC1 [Compound C168, 4-{6-[2-Fluoro-4-(2-imidazol-1-yl-ethyl)-phenoxy]-5-methyl-pyrimidin-4-yloxy}-piperidine-1-carboxylic acid isopropyl ester]"
6,43.5 nM,"Cc1nc(C)c(S(=O)(=O)N2CCC(Oc3ncnc(Nc4ccc(S(C)(=O)=O)cc4)c3[N+](=O)[O-])CC2)s1 [Compound A32, {6-[1-(2,4-Dimethyl-thiazole-5-sulfonyl)-piperidin-4-yloxy]-5-nitro-pyrimidin-4-yl}-(4-methanesulfonyl-phenyl)-amine]"
7,52 nM,"Cc1nc(Cl)ccc1Nc1ncnc(OC2CCN(C(=O)OC(C)C)CC2)c1C [Compound A90, 4-[6-(6-Chloro-2-methyl-pyridin-3-ylamino)-5-methyl-pyrimidin-4-yloxy]-piperidine-1-carboxylic acid isopropyl ester]"
8,86 nM,"CC(C)(C)C(=O)CN1CCC(Oc2ncnc(Nc3ccc(S(C)(=O)=O)cc3)c2[N+](=O)[O-])CC1 [Compound A11, 1-{4-[6-(4-Methanesulfonyl-phenylamino)-5-nitro-pyrimidin-4-yloxy]-piperidin-1-yl}-3,3-dimethyl-butan-2-one]"
9,300 nM,"CC(C)(C)C(=O)N1CCC(Nc2ncnc(Nc3ccc(S(C)(=O)=O)cc3)c2[N+](=O)[O-])CC1 [Compound B4, 1-{4-[6-(4-Methanesulfonyl-phenylamino)-5-nitro-pyrimidin-4-ylamino]-piperidin-1-yl}-2,2-dimethyl-propan-1-one]"

# Target: T2, RUP3 (Mesocricetus auratus, UniProt A0A1U8CD06)
# T2 construct: host or cells: HIT-T15 hamster insulin-producing cells
# T2 sequence (A0A1U8CD06 1-334): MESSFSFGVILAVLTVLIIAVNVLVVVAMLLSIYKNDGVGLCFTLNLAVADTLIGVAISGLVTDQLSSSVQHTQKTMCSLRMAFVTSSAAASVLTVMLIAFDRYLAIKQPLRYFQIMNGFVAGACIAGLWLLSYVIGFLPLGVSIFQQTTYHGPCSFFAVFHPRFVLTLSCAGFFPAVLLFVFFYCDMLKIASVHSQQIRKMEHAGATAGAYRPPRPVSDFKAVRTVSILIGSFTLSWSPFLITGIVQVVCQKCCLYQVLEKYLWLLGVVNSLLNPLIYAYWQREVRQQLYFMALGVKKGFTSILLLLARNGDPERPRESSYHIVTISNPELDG
# Assay: Stimulation of cAMP in HIT-T15 cells (cAMP Flashplate Assay)
# Assay type: cell-based, hamster
# Conditions: Table 6
# Method: HIT-T15 (ATCC CRL#1777) is an immortalized hamster insulin-producing cell line. These cells express RUP3 and therefore can be used to assess the ability of RUP3 ligands to stimulate or inhibit cAMP accumulation via its endogenously expressed receptor. In this assay, cells are grown to 80% confluence and then distributed into a 96-well Flashplate (50,000 cells/well) for detection of cAMP via a “cAMP Flashplate Assay” (NEN, Cat #SMP004). Briefly, cells are placed into anti-cAMP antibody-coated wells that contain either vehicle, the test ligand(s) at a concentration of interest, or 1 uM forskolin. The latter is a direct activator of adenylyl cyclase and serves as a positive control for stimulation of cAMP in HIT-T15 cells. All conditions are tested in triplicate. After a 1 hour incubation to allow for stimulation of cAMP, a Detection Mix containing ^125I-cAMP is added to each well and the plate is allowed to incubate for another 1 hour. The wells are then aspirated to remove unbound ^125I-cAMP. Bound ^125I-cAMP is detected using a Wallac Microbeta Counter. The amount of cAMP in each sample is determined by comparison to a standard curve, obtained by placing known concentrations of cAMP in some wells on the plate.
# A number of the compounds disclosed herein were screened using the above described assay.
row,EC50,SMILES
1,27 nM,"CC(C)(C)OC(=O)N1CCC(Oc2ncnc(Nc3ccc(S(C)(=O)=O)cc3F)c2[N+](=O)[O-])CC1 [Compound A34, 4-[6-(2-Fluoro-4-methanesulfonyl-phenylamino)-5-nitro-pyrimidin-4-yloxy]-piperidine-1-carboxylic acid tert-butyl ester]"
2,59 nM,"CC(C)(C)OC(=O)N1CCC(Oc2ncnc(Nc3ccc(S(C)(=O)=O)cc3)c2C#N)CC1 [Compound A35, 4-[5-Cyano-6-(4-methanesulfonyl-phenylamino)-pyrimidin-4-yloxy]-piperidine-1-carboxylic acid tert-butyl ester]"
3,20 nM,"CC(C)(C)OC(=O)N1CCC(Oc2ncnc(Nc3ccc(S(C)(=O)=O)cc3)c2[N+](=O)[O-])CC1 [Compound A1, 4-[6-(4-Methanesulfonyl-phenylamino)-5-nitro-pyrimidin-4-yloxy]-piperidine-1-carboxylic acid tert-butyl ester]"

# Tested on: Male Sprague Dawley rats
# Assay: Oral glucose tolerance test (oGTT) in rats
# Assay type: in vivo, rat
# Conditions: mean of six rats, 10 mg/kg p.o., dextrose 2 g/kg oral challenge
# Method: Male Sprague Dawley rats weighing approximately 200 g-250 g were fasted for 15 hours and randomly grouped (n=6) to receive a RUP3 agonist (Compounds A78, A88 or A118) at 3, 10 or 30 mg/kg. Compounds were delivered orally via a gavage needle (p.o., volume 3 ml/kg). At time 0, levels of blood glucose were assessed using a glucometer (Elite XL, Bayer), and rats were administered either vehicle (20% hydroxypropyl-beta-cyclodextrin) or test compound. Thirty minutes after administration of test compound, levels of blood glucose were again assessed, and rats were administered dextrose orally at a dose of 2 g/kg. Blood glucose measurements were then taken 30 min, 60 min, and 120 min after this time.
row,SMILES,% inhibition of glucose excursion
1,"CC(C)OC(=O)N1CCC(Oc2ncnc(Nc3ccc(S(C)(=O)=O)cc3F)c2C#N)CC1 [Compound A78, 4-[5-Cyano-6-(2-fluoro-4-methanesulfonyl-phenylamino)-pyrimidin-4-yloxy]-piperidine-1-carboxylic acid isopropyl ester]","39%, (10)"

# Same assay, conditions: mean of six rats, 30 mg/kg p.o., dextrose 2 g/kg oral challenge
row,SMILES,% inhibition of glucose excursion
1,"Cc1c(Nc2cc(F)c(C#N)cc2F)ncnc1OC1CCN(C(=O)OC(C)C)CC1 [Compound A88, 4-[6-(4-Cyano-2,5-difluoro-phenylamino)-5-methyl-pyrimidin-4-yloxy]-piperidine-1-carboxylic acid isopropyl ester]","38%, (30)"
2,"Cc1c(OC2CCN(C(=O)OC(C)C)CC2)ccnc1Nc1ccc(S(C)(=O)=O)cc1F [Compound A118, 4-[2-(2-Fluoro-4-methanesulfonyl-phenylamino)-3-methyl-pyridin-4-yloxy]-piperidine-1-carboxylic acid isopropyl ester]","43%, (30)"

# Same assay, conditions: rats, p.o., oGTT
row,SMILES,effect on blood glucose after challenge with glucose
1,"Cc1c(Nc2cc(F)c(C#N)cc2F)ncnc1OC1CCN(C(=O)OC(C)C)CC1 [Compound A88, 4-[6-(4-Cyano-2,5-difluoro-phenylamino)-5-methyl-pyrimidin-4-yloxy]-piperidine-1-carboxylic acid isopropyl ester]",lowered blood glucose
2,"Cc1c(OC2CCN(C(=O)OC(C)C)CC2)ccnc1Nc1ccc(S(C)(=O)=O)cc1F [Compound A118, 4-[2-(2-Fluoro-4-methanesulfonyl-phenylamino)-3-methyl-pyridin-4-yloxy]-piperidine-1-carboxylic acid isopropyl ester]",lowered blood glucose
3,"CC(C)OC(=O)N1CCC(Oc2ncnc(Nc3ccc(S(C)(=O)=O)cc3F)c2C#N)CC1 [Compound A78, 4-[5-Cyano-6-(2-fluoro-4-methanesulfonyl-phenylamino)-pyrimidin-4-yloxy]-piperidine-1-carboxylic acid isopropyl ester]",lowered blood glucose
